Earlier results in patent US20190038750A1, “TRIPLE ANTIBIOTIC CATIONIC OINTMENT” (priority 2017, published 2019).

Key:
bacteria = conditions: very low concentrations
[1] = in vivo
[2] = system: Staphylococcus aureus (also the methicillin-resistant type, MRSA)
[3] = system: Aspergillus brasiliensis (mold)
[4] = system: vancomycin-resistant enterococci
[5] = system: Klebsiella pneumoniae (carbapenem-resistant enterobacteriaceae)

For Polyaminopropylbiguanide [PAPB], the bactericidal concentration (bacteria) is listed as 10 mg/1 and the fungicidal (fungus) is listed as “fungicidal”.

For benzalkonium chloride, the burning sensation [1] is given as “does not cause a burning sensation”.

For polyhexamethylenebiguanide [PHMB], the “effective against Pseudomonas aeruginosa” value (Pseudomonas aeruginosa) is listed as “effective”, the “effective against Staphylococcus aureus (also MRSA)” value [2] is listed as “effective” and the “effective against Escherichia coli” value (Escherichia coli) is listed as “effective”. For the same substance, the “effective against Candida albicans” value (Candida albicans (yeast)) was “effective”, the “effective against Aspergillus brasiliensis” value [3] was “effective” and the “effective against vancomycin-resistant enterococci” value [4] was “effective”. For the same substance, the “effective against Klebsiella pneumoniae (carbapenem-resistant)” value [5] was “effective”.
